The subject of test [1] is A2.DR1 mice. Briefly: Flow cytometry detection of peptide-specific CD8 T-cells with HLA-A2 dextramer after vaccination of A2.DR1 mice. The test is classed as in vivo. The conditions noted are these: splenocytes after vaccination in Montanide, gated on CD45+ CD3+ cells. From the text:
(§1) Numbers of spots to MOG35-55 as negative control were subtracted. Mean+/−s.e.m. of n=4 mice per group and representative ELISpots are shown. **p<0.01. (B/C): H3.3-peptide libraries are used to assess MHC binding epitopes in silico: MHC peptide binding predictions for H3.3 K27M (red)- and K27 wt (blue)-containing 10-mer peptides to HLA-A*02:01 using NetMHC algorithm (B) and MHC peptide binding analysis for H3.3 K27M26-35 (red) or K27 wt26-35 (blue) depending on MHC-class-I haplotype (C). Peptides with logscore affinity >0.4 are defined as potential binders. […] Re-stimulation with the vehicle DMSO served as control; gated on CD45+ CD3+ CD8+ cells.
(§2) As antigen presentation and induction of an effective immune response is critically dependent on MHC haplotype, binding affinities of K27M26-35 to the most frequent class I haplotypes were analyzed. […] Thus, anti-tumor efficacy of H3.3 K27M peptide vaccination was further investigated in a syngeneic HLA-A*02 tumor model.
(A flow cytometer gives signals particle by particle.)

Test [2] relates to A2.DR1 mice. Briefly: Intracellular flow cytometry of splenocyte IFNγ responses after vaccination of A2.DR1 mice. The format is in vivo. The conditions noted are these: for IFNγ+ CD8+ T-cell response (intracellular flow cytometry): vaccination with peptide in Montanide, re-stimulation with K27M26-35 or K27 wt26-35, gated on CD45+ CD3+ CD8+ cells.
Description: as §1, §2

For “RMSAPSTGGV (listed as Homo sapiens) [K27M26-35, peptide corresponding to amino acids 26-35 of K27M Histone H3.3]”, the “peptide-specific CD8+ T-cells detected with HLA-A2 dextramer” value was “could be detected directly” in the test with A2.DR1 mice [1] and “CD8-positive T-cells are detected with HLA-A2 multimers” with A2.DR1 mice [1] (listed as H3.3 K27M26-35). Moreover, the “immune response, HLA-A*02 restricted (summary statement)” value in the test on A2.DR1 mice [2] (according to the examples) is on record as “surprisingly strong immune response”. For the same sequence, the “IFNγ+ CD8+ T-cell response (intracellular flow cytometry)” value with A2.DR1 mice [2] is reported as “induced IFNγ^+CD8^+-driven mutation-specific cytotoxic T-cell responses”; in the test with A2.DR1 mice [2] (listed as H3.3 K27M26-35), “induces a mutation-specific CD8-driven T-cell response”.

(Values after patent US11767352B2, “Histone anti-cancer vaccines” (DEUTSCHES KREBSFORSCHUNGSZENTRUM, priority 2015, dated 2023).)
